Test results reported in patent US9387221B2, “SDF-1 binding nucleic acids and the use thereof in cancer treatment” (NOXXON Pharma AG, priority 2010, dated 2016).

What was measured:
[1] = biological target: human SDF-1α (Homo sapiens, UniProt P48061); assay: Surface plasmon resonance measurement (Biacore 2000); type: binding; details: Spiegelmer (L-RNA), 37° C.
Experimental: The Biacore 2000 instrument (Biacore AB, Uppsala, Sweden) was used to analyze binding of Spiegelmers to human SDF-1α. When coupling of human SDF-1α was to be achieved via amine groups, human SDF-1α was dialyzed against water for 1-2 h (Millipore VSWP mixed cellulose esters; pore size, […]) to remove interfering amines. CM4 sensor chips (Biacore AB, Uppsala, Sweden) were activated before protein coupling by a 35-μl injection of a 1:1 dilution of 0.4 M NHS and 0.1 M EDC at a flow of 5 μl/min. Human MCP-1 or human SDF-1α was then injected in concentrations of 0.1-1.5 μg/ml at a flow of 2 μl/min until the instrument's response was in the range of 1000-2000 RU (relative units). Unreacted NHS esters were deactivated by injection of 35 μl ethanolamine hydrochloride solution (pH 8.5) at a flow of 5 μl/min. The sensor chip was primed twice with binding buffer and equilibrated at 10 μl/min for 1-2 hours until the baseline appeared stable. For all proteins, kinetic parameters and dissociation constants were evaluated by a series of Spiegelmer injections at concentrations of 1000, 500, 250, 125, 62.5, 31.25, and 0 nM in selection buffer (Tris-HCl, 20 mM; NaCl, 137 mM; KCl, 5 mM; CaCl2, 1 mM; MgCl2, 1 mM; Tween20, 0.1% [w/v]; pH 7.4). In all experiments, the analysis was performed at 37° C. using the Kinject command defining an association time of 180 and a dissociation time of 360 seconds at a flow of 10 μl/min. Data analysis and calculation of dissociation constants (KD) was done with the BIAevaluation 3.0 software (BIACORE AB, Uppsala, Sweden) using the Langmuir 1:1 stochiometric fitting algorithm.

[2] = system: biotinylated human D-SDF-1; assay: Competitive pull-down binding assay; details: for binding affinity in competitive pull-down binding assay vs. 192-A10-001: aptamer level, reference 192-A10-001; for binding affinity of derivatives of 192-A10-001 in competitive pull-down binding assay: vs. 192-A10-001 and 192-A10-008; for binding affinity of derivatives of 193-G2-001 and 193-C2-001 in competitive pull-down binding assay: vs. 193-G2-001 and 193-G2-012
Experimental: In order to compare different D-SDF-1 binding aptamers, a competitive ranking assay was performed. For this purpose the most affine aptamer available was radioactively labeled (see above) and served as reference. […] An excess of de- and renatured non-labeled D-RNA aptamer variants was added to different concentrations (e.g. 2, 10, and 50 nM) with the labeled reference aptamer to parallel binding reactions. The aptamers to be tested competed with the reference aptamer for target binding, thus decreasing the binding signal in dependence of their binding characteristics.

[3] = biological target: SDF-1 (Homo sapiens, UniProt P48061); assay: Inhibition of SDF-1-induced chemotaxis, Jurkat cells; type: cell-based; details: for IC50: Spiegelmer, Jurkat cells migrating towards 0.3 nM human SDF-1, 3 h, 37° C., read-out: IC50, cell culture in vitro chemotaxis assay; for influence of the PEG-moiety on Spiegelmers potency to inhibit SDF-1 induced chemotaxis: Spiegelmer coupled to 40 kDa PEG at the 5′-end
Experimental: The human T cell leukemia cell line Jurkat, the human leukemic monocyte lymphoma cell line U937, the human pre-B cell leukemia cell line BV-173 and human pre-B ALL cell line Nalm-6 express CXCR4. […] All cells used were obtained from the DSMZ (Braunschweig). All cell lines were cultivated at 37° C. and 5% CO2 in RPMI 1640 medium with Glutamax (Invitrogen, Karlsruhe, Germany) which contains 10% fetal bovine serum, 100 units/ml penicillin and 100 μg/ml streptomycin (Invitrogen, Karlsruhe, Germany). One day before the experiment, cells were seeded in a new T175 flask with a density of 0.3×10^6/ml (Jurkat, U937, BV-173) or 0.75×10^6/ml (Nalm-6), respectively.
For the experiment, cells were centrifuged (5 min at 300 g), resuspended, counted and washed once with 15 ml HBH (Hanks balanced salt solution containing 1 mg/ml bovine serum albumin and 20 mM HEPES; Invitrogen, Karlsruhe, Germany). Then the cells were resuspended at 1.33×10^6/ml (Jurkat, U937, BV-173) or 2.67×10^6/ml (Nalm-6), respectively. Cells were then allowed to migrate through the porous membranes of the filter plates for three hours towards a solution containing SDF-1 and various amounts of Spiegelmer. The stimulation solutions (SDF-1+various concentrations of Spiegelmer) were made up as 10× solutions in a 0.2 ml low profile 96-tube plate. 212 μl HBH were pipetted into the lower compartments of the transport plate and 23.5 μl of the stimulation solutions were added. All conditions were made up as triplicates. After 20 to 30 min the filter plate was inserted into the plate containing the stimulation solutions and 75 μl of a cell suspension with 1.33×10^6/ml or 2.67×10^6/ml, respectively, were added to the wells of the filter plate (1×10^5 or 2×10^5 cells/well). The cells were then allowed to migrate for 3 h at 37° C. For calibration, 0, 10 and 30 μl of the cell suspension was added to 235, 225 and 205 μl HBH, respectively, in wells of a separate 96-well plate. After 3 hours incubation, the insert plate was removed and 30 μl resazurin working solution (440 μM in PBS) were added to the lower wells and to the wells of the calibration plate. The plates were then incubated at 37° C. for 2.5 h. After incubation, 100 μl of each well were transferred to a black 96 well plate.
For evaluation, fluorescence values were corrected for background fluorescence (no cells in well). Then the difference between experimental conditions with and without SDF-1 was calculated. The value for the sample without Spiegelmer (SDF-1 only) was set 100% and the values for the samples with Spiegelmer were calculated as percent of this. For a dose-response curve the percent-values were plotted against Spiegelmer concentration and the IC50-value (concentration of Spiegelmer at which 50% of the activity without Spiegelmer is present) was determined graphically from the resulting curve.

[4] = system: biotinylated human D-SDF-1; assay: Direct pull-down binding assay; details: aptamer (D-RNA), 37° C.; read-out: equilibrium binding constant KD, pull-down binding assay
Experimental: The affinity of aptamers to biotinlayted human D-SDF-1 was measured in a pull-down binding assay format at 37° C. Aptamers were 5′-phosphate labeled by T4 polynucleotide kinase (Invitrogen, Karlsruhe, Germany) using [γ-^32P]-labeled ATP (Hartmann Analytic, Braunschweig, Germany). The specific radioactivity of labeled aptamers was 200,000-800,000 cpm/pmol. Aptamers were incubated after de- and renaturation at 10, 20, 30 or 40 pM concentration at 37° C. in selection buffer (20 mM Tris-HCl pH 7.4; 137 mM NaCl; 5 mM KCl; 1 mM MgCl2; 1 mM CaCl2; 0.1% [w/vol] Tween-20) together with varying amounts of biotinlayted human D-SDF-1 for 4-12 hours in order to reach equilibrium at low concentrations. Selection buffer was supplemented with 10 μg/ml human serum albumin (Sigma-Aldrich, Steinheim, Germany), and 10 μg/ml yeast RNA (Ambion, Austin, USA) in order to prevent adsorption of binding partners with surfaces of used plasticware or the immobilization matrix. The concentration range of biotinlayted human D-SDF-1 was set from 8 pM to 100 nM; total reaction volume was 1 ml. Peptide and peptide-aptamer complexes were immobilized on 1.5 μl Streptavidin Ultralink Plus particles (Pierce Biotechnology, Rockford, USA) which had been preequilibrated with selection buffer and resuspended in a total volume of 6 μl. Particles were kept in suspension for 30 min at the respective temperature in a thermomixer. Immobilized radioactivity was quantitated in a scintillation counter after detaching the supernatant and appropriate washing. The percentage of binding was plotted against the concentration of biotinlayted human D-SDF-1 and dissociation constants were obtained by using software algorithms (GRAFIT; Erithacus Software; Surrey U.K.) assuming a 1:1 stoichiometry.

Sequence of SDF-1 (P48061 22-89): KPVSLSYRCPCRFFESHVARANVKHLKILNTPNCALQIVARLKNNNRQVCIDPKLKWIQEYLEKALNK
Sequence of human SDF-1α (P48061 22-89): as above

AGCGUGGCGAGGUUAGGGCUAGAAGUCGGUCGACACGCU (Made as D-RNA aptamer and L-RNA Spiegelmer, tested form not given here, further chemistry not given here) [191-D5-001]
Kd [1]: 0.8 nM
binding affinity in competitive pull-down binding assay vs. 192-A10-001 [2]: weaker binding affinities

AGCGUGGUGUGAUCUAGAUGUAUUGGCUGAUCCUAGUCAGGUACGCU (chemistry not fully specified) [193-G2-001]
IC50 [3]: 0.08 nM
binding affinity in competitive pull-down binding assay vs. 192-A10-001 [2]: superior binding
Kd [4]: 0.3 nM

GCCGGGGUUAGGGCUAGAAGUCGGCCGGC (chemistry not fully specified) [197-B2-006]
influence of the PEG-moiety on Spiegelmers potency to inhibit SDF-1 induced chemotaxis [3]: no influence
binding affinity of truncated derivatives of 197-B2 ([2]; vs. 197-B2 and 191-D5-007): fully persisted

GCGUGAAAGCAACAUGUCAAUGAAAGGUAGCCGCGC (chemistry not fully specified) [192-A10-008]
influence of the PEG-moiety on Spiegelmers potency to inhibit SDF-1 induced chemotaxis [3]: no influence
binding affinity of derivatives of 192-A10-001 in competitive pull-down binding assay [2]: same binding affinity as shown for 192-A10-002

GCGUGGUGUGAUCUAGAUGUAUUGGCUGAUCCUAGUCAGGUACGC (chemistry not fully specified) [193-G2-012]
Kd [4]: 0.3 nM

GCUGUGAAAGCAACAUGUCAAUGAAAGGUAGCCGCAGC (aptamer; Made as D-RNA aptamer and L-RNA Spiegelmer, tested form not given here, further chemistry not given here) [192-A10-001]
IC50 [3]: 0.12 nM
Kd [4]: 1.5 nM

GUGCAAAGCAACAUGUCAAUGAAAGGUAGCGCGC (aptamer; chemistry not given here) [192-A10-018]
binding affinity of derivatives of 192-A10-001 in competitive pull-down binding assay [2]: weaker, much weaker or very much weaker binding affinity

GUGCUGCCGGGGUUAGGGCUAA-AGUCGGCCGACAGCAC (GUGCUGCCGGGGUUAGGGCUAAAGUCGGCCGACAGCAC; chemistry not given here) [197-D1]
binding affinity in competitive pull-down binding assay vs. 192-A10-001 [2]: Much weaker binding affinity

GUGCUGCGGGGGUUAGGGCUCAAAGUCGGCCUGCAGCAC (chemistry not given here) [197-H2]
binding affinity in competitive pull-down binding assay vs. 192-A10-001 [2]: Much weaker binding affinity

GUGCUGCGGGGGUUAGGGCUCGAAGUCGGCCCGCAGCAC (chemistry not given here) [197-H3]
binding affinity in competitive pull-down binding assay vs. 192-A10-001 [2]: weaker binding affinities

GUGCUGUGGGGGUCAGGGCUAGAAGUCGGCCUGCAGCAC (chemistry not given here) [197-D2]
binding affinity in competitive pull-down binding assay vs. 192-A10-001 [2]: Much weaker binding affinity

GUGGUGUGAUCUAGAUGUAGUGGCUGAUCCUAGUCAGGUAC (chemistry not fully specified) [193-C2-004]
binding affinity of derivatives of 193-G2-001 and 193-C2-001 in competitive pull-down binding assay [2]: reduced binding affinity

GUGGUGUGAUCUAGAUGUAGUGGCUGUUCCUAGUCAGGUAUGC (chemistry not fully specified) [193-E3-002]
binding to human SDF-1 in comparison to 193-G2-001 ([2]; reference 193-G2-001): reduced binding

GUGUGAUCUAGAUGUAGUGGCUGAUCCUAGUCAGG (Listed both as L-RNA Spiegelmer and D-RNA aptamer, further chemistry not given here) [193-C2-007]
binding affinity of derivatives of 193-G2-001 and 193-C2-001 in competitive pull-down binding assay [2]: reduced binding affinity

GUGUUCCCGGGGUUAGGGCUUGAAGUCGGCCGGCAGCAC (aptamer; chemistry not fully specified) [197-B1]
binding affinity in competitive pull-down binding assay vs. 192-A10-001 [2]: Much weaker binding affinity

GUGUUGCAGGGGUUAGGGCUUGAAGUCGGCCUGCAGCAC (chemistry not given here) [197-E3]
binding affinity in competitive pull-down binding assay vs. 192-A10-001 [2]: weaker binding affinities

GUGUUGCGGAGGUUAGGGCUAGAAGUCGGUCAGCAGCAC (chemistry not given here) [197-H1]
binding affinity in competitive pull-down binding assay vs. 192-A10-001 [2]: weaker binding affinities

UGAAAGCAACAUGUCAAUGAAAGGUAGCCG (chemistry not fully specified) [192-A10-005]
binding affinity of derivatives of 192-A10-001 in competitive pull-down binding assay [2]: reduced binding affinity

UGAGAUAGGGGUUAGGGCUUAAAGUCGGCUGAUUCUCA (aptamer; Made as D-RNA aptamer and L-RNA Spiegelmer, tested form not given here, further chemistry not given here) [190-A3-003]
binding affinity of derivatives of 190-A3-001 ([2]; compared with 190-A3-001): does not have an influence on the binding affinity

UGGUGUGAUCUAGAUGUAGUGGCUGAUCCUAGUCAGGUA (Made as D-RNA aptamer and L-RNA Spiegelmer, tested form not given here, further chemistry not given here) [193-C2-005]
binding affinity of derivatives of 193-G2-001 and 193-C2-001 in competitive pull-down binding assay [2]: reduced binding affinity

UGUGAAAGCAACAUGUCAAUGAAAGGUAGCCGCA (aptamer; chemistry not given here) [192-A10-003]
binding affinity of derivatives of 192-A10-001 in competitive pull-down binding assay [2]: reduced binding affinity
